# Target: Polyadenylate-binding protein 1 (Homo sapiens, UniProt P11940)
# Assay: PABP inhibition in translation initiation, SAR follow-up (AID 435018)
# Sequence of Polyadenylate-binding protein 1 (P11940 whole entry): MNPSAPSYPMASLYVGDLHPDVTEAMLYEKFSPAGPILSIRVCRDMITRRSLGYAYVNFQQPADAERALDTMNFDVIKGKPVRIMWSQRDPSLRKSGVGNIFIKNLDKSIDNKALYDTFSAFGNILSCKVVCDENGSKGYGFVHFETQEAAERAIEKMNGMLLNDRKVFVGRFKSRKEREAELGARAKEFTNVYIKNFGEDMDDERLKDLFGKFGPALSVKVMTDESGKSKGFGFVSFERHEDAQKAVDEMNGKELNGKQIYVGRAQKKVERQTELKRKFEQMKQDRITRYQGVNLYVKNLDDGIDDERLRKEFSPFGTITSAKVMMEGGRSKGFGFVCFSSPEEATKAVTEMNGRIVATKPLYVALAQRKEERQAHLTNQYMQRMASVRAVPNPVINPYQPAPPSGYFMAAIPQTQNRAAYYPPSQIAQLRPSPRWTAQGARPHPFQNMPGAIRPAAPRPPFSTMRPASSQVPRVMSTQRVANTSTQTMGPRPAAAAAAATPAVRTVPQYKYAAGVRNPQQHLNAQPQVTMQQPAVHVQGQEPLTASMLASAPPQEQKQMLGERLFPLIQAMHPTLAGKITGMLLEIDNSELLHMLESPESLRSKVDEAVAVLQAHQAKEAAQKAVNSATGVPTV
smiles,measurement,value
COc1cc([CH+][N-]NC(=O)c2ccc(O)cc2)ccc1OCC(=O)Nc1cccc([N+](=O)[O-])c1,IC50,> 100 µM
